The nature of one series: physchem. The series is classed as physicochemical. The following applies: for solubility thermodynamic: Equilibrium solubility. The source says:
The solubilities were equilibrium solubilities measured by a saturated solution method well known to those skilled in the art.

Series [1] can be described thus: Dissolution, free base precipitation and tonicity on preparation of formulations. The series is classed as physicochemical. The following applies: for Dissolution: added to citrate buffer solution; for Dissolution / Dissolution in water for injection / free base precipitation: monohydrochloride; for Dissolution in water for injection / free base precipitation: unbuffered water for injection, before pH adjustment. On the procedure:
With regard to the process for producing the stable pharmaceutical composition according to the inventions, preferably the citric acid and sodium hydroxide is first dissolved in some water for injection to form a solution of the desired pH. The nicardipine HCI and sorbitol are then added and dissolved in this solution of controlled pH and the resulting solution made to volume with the remainder of the water for injection.
A. In an initial attempt to formulate a pharmaceutical composition of nicardipine hydrochloride suitable for parenteral administration employing conventional techniques well known in the pertinent art, 1 mg of nicardipine hydrochloride was dissolved in water for injection. To this was admixed 6 mg of sodium chloride and a sufficient amount of hydrochloric acid to give a solution having a pH of 3 5. This solution was then made up to volume with water for injection, i.e., to 1 ml. The resulting composition was packaged in an ampule and sterilized by autoclaving.
B. Then, in a following attempt to formulate a pharmaceutical composition of nicardipine hydrochloride for parenteral administration employing conventional techniques well known in the pertinent art, 1 mg of nicardipine hydrochloride together with about 50 mg of the non-chloride, saccharide compound, sorbitol, were dissolved in a portion of water for injection. Sufficient amounts of concentrated hydrochloric acid was added to produce a solution of pH 3.5 and the composition was made to volume with the remainder of the water for injection, i.e. to 1 ml. The resulting composition was packaged in an ampule and sterilized by autoclaving.
The solution was made up to volume, i.e 1 ml. with the remainder of the water for injection. This solution was then filled into ampules and terminally sterilized by autoclaving.

Structures are written as SMILES.

On to `COC(=O)C1=C(C)NC(C)=C(C(=O)OCCN(C)Cc2ccccc2)C1c1cccc([N+](=O)[O-])c1.Cl` (stereo not shown) [Nicardipine Hydrochloride, 2-(Benzylmethylamino)ethyl methyl 1,4-dihydro-2,6-dimethyl-4-(m-nitrophenyl)-3,5-pyridine-dicarboxylate monohydrochloride], for which the “Aqueous solubility as a function of pH” value in the series “physchem” is on record as “reduction in the aqueous solubility”. Moreover, the solubility (thermodynamic) (usually solubility found after equilibrating the solid with the medium) was 2940 µg/mL in the series “physchem” (water, pH 3.05, water); 3280 µg/mL in the series “physchem” (water, pH 3.45, water); 2950 µg/mL in the series “physchem” (water, pH 4.06, water); 2350 µg/mL in the series “physchem” (water, pH 4.24, water); 850 µg/mL in the series “physchem” (water, pH 4.68, water); 360 µg/mL in “physchem” (water, pH 5.05, water). In addition, in “physchem” (water, pH 6.21, water), the thermodynamic solubility came to 25 µg/mL. The compound also returned an Equilibrium solubility in “physchem” (water, pH 4.06) of 5160 µg/mL. Also, the Dissolution entry in series [1] (listed as Nicardipine HCl) is “very easy”; in series [1], “rapid and complete dissolution”. In series [1] (dissolved in buffer solution), the “Precipitation of free base” value is “No precipitation of free base was observed”. The “Temperature that can be required for dissolution” value in series [1] (dissolved in water, before buffer addition or unbuffered) is 60-70 °C. For the same compound, in series [1] (sodium chloride increased to give an isotonic solution), the “Dissolution of required dose strength (1 mg per ml)” value was “failure to dissolve sufficient nicardipine hydrochloride”. Further, the results for the “Dissolution in water for injection / free base precipitation” value in series [1] (listed as Nicardipine HCl) and in series [1] were “difficult” and “formation of nicardipine free base which precipitates from solution”, respectively.

(Values after patent US5164405A, “Nicardipine pharmaceutical composition for parenteral administration” (Syntex (U.S.A.) Inc., priority 1990, dated 1992).)
